Measurements from the supplement of paper PMC10307832.

Key:
Test in all cases: relative viability (nuclei count vs DMSO), 5 days (fraction); higher = more cells survive
NCI-H2170 = tested on: NCI-H2170
How it was run: (§1)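 Relative viability is defined as nuclei in treated wells over nuclei in vehicle wells. Duplicate plates were run and medians reported. Lung cancer cell lines in 1536-well plates were dosed by pin tool one day after seeding, with one drug or with a fixed anchor-drug dose plus five library-drug doses (not always all listed) in √10 steps, and nuclei were counted after 5 days.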

NCI-H2228 = tested on: NCI-H2228
How it was run: as §1

LOU-NH91 = tested on: LOU-NH91
How it was run: as §1

NCI-H520 = tested on: NCI-H520
How it was run: as §1

HCC-366 = tested on: HCC-366
How it was run: as §1

RERF-LC-KJ = tested on: RERF-LC-KJ
How it was run: as §1

NCI-H596 = tested on: NCI-H596
How it was run: as §1

NCI-H1755 = tested on: NCI-H1755
How it was run: as §1

SW 1573 = tested on: SW 1573
How it was run: as §1

NCI-H838 = tested on: NCI-H838
How it was run: as §1

NCI-H1651 = tested on: NCI-H1651
How it was run: as §1

HCC-78 = tested on: HCC-78
How it was run: as §1

NCI-H1975 = tested on: NCI-H1975
How it was run: as §1

HCC-827 = tested on: HCC-827
How it was run: as §1

UMC-11 = tested on: UMC-11
How it was run: as §1

NCI-H1993 = tested on: NCI-H1993
How it was run: as §1

SK-MES-1 = tested on: SK-MES-1
How it was run: as §1

PC-3 [JPC-3] = tested on: PC-3 [JPC-3]
How it was run: as §1

HARA = tested on: HARA
How it was run: as §1

NCI-H1793 = tested on: NCI-H1793
How it was run: as §1

HCC-44 = tested on: HCC-44
How it was run: as §1

COR-L 105 = tested on: COR-L 105
How it was run: as §1

EPLC-272H = tested on: EPLC-272H
How it was run: as §1

NCI-H1355 = tested on: NCI-H1355
How it was run: as §1

Nc1cccc2c1CN(C1CCC(=O)NC1=O)C2=O (stereo not given) [Lenalidomide] + CC1(C)CCC(c2ccc(Cl)cc2)=C(CN2CCN(c3ccc(C(=O)NS(=O)(=O)c4ccc(N[C@H](CCN5CCOCC5)CSc5ccccc5)c(S(=O)(=O)C(F)(F)F)c4)cc3)CC2)C1 [Navitoclax] (partner 0.5 µM)
relative viability (NCI-H2170; first compound 0.253 µM): 0.552 | relative viability (NCI-H2170; first compound 0.8 µM): 0.595 | relative viability (NCI-H2170; first compound 2.53 µM): 0.593 | relative viability (NCI-H2170; first compound 8 µM): 0.481 | relative viability (NCI-H2228; first compound 0.253 µM): 0.821 | relative viability (NCI-H2228; first compound 0.8 µM): 0.711 | relative viability (NCI-H2228; first compound 2.53 µM): 0.949 | relative viability (NCI-H2228; first compound 8 µM): 0.905 | relative viability (LOU-NH91; first compound 0.253 µM): 0.614 | relative viability (LOU-NH91; first compound 0.8 µM): 0.631 | relative viability (LOU-NH91; first compound 2.53 µM): 0.673 | relative viability (LOU-NH91; first compound 8 µM): 0.692 | relative viability (NCI-H520; first compound 0.253 µM): 0.958 | relative viability (NCI-H520; first compound 0.8 µM): 1.05 | relative viability (NCI-H520; first compound 2.53 µM): 1.22 | relative viability (NCI-H520; first compound 8 µM): 0.892 | relative viability (HCC-366; first compound 0.253 µM): 1.02 | relative viability (HCC-366; first compound 0.8 µM): 1.19 | relative viability (HCC-366; first compound 2.53 µM): 1.13 | relative viability (HCC-366; first compound 8 µM): 1.08 | relative viability (RERF-LC-KJ; first compound 0.253 µM): 0.959 | relative viability (RERF-LC-KJ; first compound 0.8 µM): 0.736 | relative viability (RERF-LC-KJ; first compound 2.53 µM): 1.02 | relative viability (RERF-LC-KJ; first compound 8 µM): 1.09 | relative viability (NCI-H596; first compound 0.253 µM): 0.951 | relative viability (NCI-H596; first compound 0.8 µM): 0.795 | relative viability (NCI-H596; first compound 2.53 µM): 0.989 | relative viability (NCI-H596; first compound 8 µM): 0.879 | relative viability (NCI-H1755; first compound 0.253 µM): 0.994 | relative viability (NCI-H1755; first compound 0.8 µM): 1.01 | relative viability (NCI-H1755; first compound 2.53 µM): 1.01 | relative viability (NCI-H1755; first compound 8 µM): 0.745 | relative viability (SW 1573; first compound 0.253 µM): 0.931 | relative viability (SW 1573; first compound 0.8 µM): 0.911 | relative viability (SW 1573; first compound 2.53 µM): 1.07 | relative viability (SW 1573; first compound 8 µM): 0.926 | relative viability (NCI-H838; first compound 0.253 µM): 1.15 | relative viability (NCI-H838; first compound 0.8 µM): 1.09 | relative viability (NCI-H838; first compound 2.53 µM): 1.29 | relative viability (NCI-H838; first compound 8 µM): 1.1 | relative viability (NCI-H1651; first compound 0.253 µM): 1.04 | relative viability (NCI-H1651; first compound 0.8 µM): 0.931 | relative viability (NCI-H1651; first compound 2.53 µM): 1.25 | relative viability (NCI-H1651; first compound 8 µM): 0.898 | relative viability (HCC-78; first compound 0.253 µM): 0.834 | relative viability (HCC-78; first compound 0.8 µM): 0.72 | relative viability (HCC-78; first compound 2.53 µM): 0.842 | relative viability (HCC-78; first compound 8 µM): 0.654 | relative viability (NCI-H1975; first compound 0.253 µM): 1.13 | relative viability (NCI-H1975; first compound 0.8 µM): 1.07 | relative viability (NCI-H1975; first compound 2.53 µM): 1.25 | relative viability (NCI-H1975; first compound 8 µM): 1.19 | relative viability (HCC-827; first compound 0.253 µM): 1.06 | relative viability (HCC-827; first compound 0.8 µM): 0.977 | relative viability (HCC-827; first compound 2.53 µM): 1.01 | relative viability (HCC-827; first compound 8 µM): 1.07 | relative viability (UMC-11; first compound 0.253 µM): 0.317 | relative viability (UMC-11; first compound 0.8 µM): 0.28 | relative viability (UMC-11; first compound 2.53 µM): 0.346 | relative viability (UMC-11; first compound 8 µM): 0.277 | relative viability (NCI-H1993; first compound 0.253 µM): 0.906 | relative viability (NCI-H1993; first compound 0.8 µM): 0.855 | relative viability (NCI-H1993; first compound 2.53 µM): 0.88 | relative viability (NCI-H1993; first compound 8 µM): 0.797 | relative viability (SK-MES-1; first compound 0.253 µM): 1.12 | relative viability (SK-MES-1; first compound 0.8 µM): 1.15 | relative viability (SK-MES-1; first compound 2.53 µM): 1.3 | relative viability (SK-MES-1; first compound 8 µM): 1.17 | relative viability (PC-3 [JPC-3]; first compound 0.253 µM): 0.752 | relative viability (PC-3 [JPC-3]; first compound 0.8 µM): 0.771 | relative viability (PC-3 [JPC-3]; first compound 2.53 µM): 0.863 | relative viability (PC-3 [JPC-3]; first compound 8 µM): 0.734 | relative viability (HARA; first compound 0.253 µM): 1.14 | relative viability (HARA; first compound 0.8 µM): 1.12 | relative viability (HARA; first compound 2.53 µM): 1.19 | relative viability (HARA; first compound 8 µM): 1.2 | relative viability (NCI-H1793; first compound 0.253 µM): 0.349 | relative viability (NCI-H1793; first compound 0.8 µM): 0.449 | relative viability (NCI-H1793; first compound 2.53 µM): 0.426 | relative viability (NCI-H1793; first compound 8 µM): 0.315 | relative viability (HCC-44; first compound 0.253 µM): 0.966 | relative viability (HCC-44; first compound 0.8 µM): 0.75 | relative viability (HCC-44; first compound 2.53 µM): 1.1 | relative viability (HCC-44; first compound 8 µM): 0.917 | relative viability (COR-L 105; first compound 0.253 µM): 0.45 | relative viability (COR-L 105; first compound 0.8 µM): 0.81 | relative viability (COR-L 105; first compound 2.53 µM): 0.717 | relative viability (COR-L 105; first compound 8 µM): 0.883 | relative viability (EPLC-272H; first compound 0.253 µM): 1.24 | relative viability (EPLC-272H; first compound 2.53 µM): 0.917 | relative viability (EPLC-272H; first compound 8 µM): 0.741 | relative viability (NCI-H1355; first compound 0.253 µM): 1 | relative viability (NCI-H1355; first compound 0.8 µM): 0.737 | relative viability (NCI-H1355; first compound 2.53 µM): 0.889 | relative viability (NCI-H1355; first compound 8 µM): 0.561
